Data on 4 compounds can be found in US8183364B2, “Substituted porphyrins” (Duke University, priority 2004, dated 2012).

A short description of series [1]: Electrochemistry: cyclic voltammetry of the Mn(III)/Mn(II) redox couple. The series is classed as physicochemical. As to conditions: Mn(III)/Mn(II); 0.1 M NaCl, 0.05 M phosphate buffer, pH 7.8; ±3 mV. The procedure:
Electrochemistry. Measurements were performed on a CH Instruments Model 600 Voltammetric Analyzer (Spasojevic and Batinic-Haberle, Inorg. Chim. Acta. 317:230-242 (2001), Batinic-Haberle et al, J. Biol. Chem. 273:24521-24528 (1998), Batinic-Haberle et al, Inorg. Chem. 38:4011-4022 (1999)). A three-electrode system in a small volume cell (0.5 mL to 3 mL), with a 3 mm-diameter glassy carbon button working electrode (Bioanalytical Systems), plus the Ag/AgCl reference and Pt auxiliary electrodes was used. Argon-purged solutions contained 0.05 M phosphate buffer, pH 7.8, 0.1 M NaCl, and 0.5 mM metalloporphyrin. The scan rates were 0.01-0.5 V/s, typically 0.1 V/s. The potentials were standardized against the potassium ferrocyanide/ferricyanide (Kolthof and Tomsicek, J. Phys. Chem. 39:945 (1935)) and/or against MnTE-2-PyP^5+ (Spasojevic and Batinic-Haberle, Inorg. Chim. Acta. 317:230-242 (2001), Batinic-Haberle et al, J. Biol. Chem. 273:24521-24528 (1998), Batinic-Haberle et al, Inorg. Chem. 38:4011-4022 (1999)).
Electrochemistry. All cyclic voltammograms, ascribed to the Mn(III)/Mn(II) redox couple, are reversible. The E1/2 of di-ortho ethylimidazolylporphyrin, MnTDE-2-ImP^5+ is 118 mV more positive than of ortho ethylpyridylporphyrin, MnTE-2-PyP^5+ (+228 mV vs NHE), as a consequence of charge delocalization. A similar difference of 114 mV was seen between their methoxyethyl analogues. Mn porphyrins bearing N-pyridyl substituents of the same length, MnTnBu-PyP^5+ and MnTMOE-2-PyP^5+, have nearly identical E1/2 of +254 and +251 mV vs NHE, which is 26 and 23 mV higher than that of MnTE-PyP^5+.

Series [2] can be described thus: Oxidative degradation in the presence of ascorbic acid under aerobic conditions. The series is classed as physicochemical. As to conditions: pH 7.8 (0.05 M tris buffer). How it is done:
Under these conditions porphyrins underwent oxidative degradation. As previously observed (Batinic-Haberle et al, J. Chem. Soc., Dalton Trans., pgs. 2689-2696 (2002)), those porphyrins that are of more positive E1/2 are stabilized in +2 oxidation state and are less prone to oxidative damage. Accordingly, 27% and 24% of MnTE-2-PyP^5+ and MnTMOE-2-PyP^5+ undergo degradation within 2 hours, but only 2% of MnTM,MOE-2-ImP^5+ and MnTDMOE-2-ImP^5+ and 3% of MnTDE-2-ImP^5+.

Series [3] can be described thus: Thin-layer chromatography on silica gel (retention factor Rf, lipophilicity). The series is classed as physicochemical. As to conditions: silica gel TLC, KNO3-saturated H2O/H2O/acetonitrile = 1/1/8. How it is done:
Uv/vis spectra of porphyrin ligands and their Mn complexes were taken on a Shimadzu UV-2501-PC spectrophotometer at 25° C. Thin-layer chromatography of ligands and Mn complexes was done using silica gel plates with KNO3satH2O/H2O/acetonitrile=1/1/8.
Thin-layer chromatography. All new methoxyporphyrins are more lipophilic than MnTE-2-PyP^5+ and MnTDE-2-ImP^5+.

The nature of series [4]: Catalysis of O2.^− dismutation by pulse radiolysis. The series is classed as biochemical. The conditions noted are these: pulse radiolysis, pH 7.8, (22 ± 1) °C; kcat ±30%. The procedure:
Catalysis of O2.^− dismutation. The catalytic rate constants for the O2.^− dismutation were determined by pulse radiolysis in 0.05 M phosphate buffer (pH 7.8) at (22±1)° C. as previously described (Batinic-Haberle et al, Inorg. Chem. 40:726 (2001)). In the present study 10 mM formate was used as a scavenger for H. atoms and .OH radicals, which leads first to production of CO2.^− radicals and then to O2.^− radicals. This system is known to lead to conversion of all primary radicals of water radiolysis into O2.^−.
Catalysis of O2.^− dismutation. Pulse radiolysis was used to assess the SOD-like activities of the Mn porphyrins studied. The initial concentration of O2.^− produced by the pulse was about 27 μM, and the concentration of the Mn porphyrin was between 0.5 and 5 μM. The dismutation of O2.^− was followed at 280 nm. The catalytic rate constant was determined from the linear dependence of kobs upon the concentration of the catalyst (Batinic-Haberle et al, Inorg. Chem. 40:726 (2001)). All the new compounds have high O2.^− dismuting ability. The magnitude of the catalysis is due to the interplay of the electron-withdrawing effects of quaternized ortho pyridyl or di-ortho imidazolyl groups, favorable electrostatics, and the solvation of the metal site.

For series [5] the following is noted: data from Batinic-Haberle et al 2002, cited from earlier work; for Rf (compound path/solvent path), metal-free porphyrin (in parenthesis): metal-free ligand of the named Mn porphyrin; for Rf (compound path/solvent path), Mn complex: silica gel TLC, KNO3-saturated H2O/H2O/acetonitrile = 1/1/8.
The conditions of series [6]: Mn(III)/Mn(II); 0.1 M NaCl, 0.05 M phosphate buffer, pH 7.8; data from Batinic-Haberle et al 2002; cited from earlier work.
The conditions of series [7]: pH 7.8, (22 ± 1) °C; data from Batinic-Haberle et al 2002 (MnTE-2-PyP: Inorg. Chem. 40:726 (2001)); cited from earlier work.
The subject of series [8] is SOD-deficient JI132 E. coli. Nature of the series: Aerobic growth of SOD-deficient E. coli. The series is classed as cell-based. As to conditions: for aerobic growth of SOD-deficient E. coli: 5AA minimal medium, 25 μM; for protection of SOD-deficient E. coli / facilitation of aerobic growth of SOD-deficient E. coli, dependence on concentration: M9CA medium; for facilitation of aerobic growth of SOD-deficient E. coli, dependence on concentration: 1-30 μM. The procedure: (§1) Aerobic growth of E. coli. Bacterial strains of E. coli used were wild type AB1157 (F-thr-1 leu-1 proA2 his-4 argE3 thr-1 lacY1 galK2 rpsL supE44 ara-14 xyl-15 mtl-1 tsx-33) and SOD-deficient JI132 (same as AB1157 plus (sodA::mudPR13)25 (sodB-kan)1-Δ2. Culture media were prepared as follows. M9 medium: 6 g/L Na2HPO4, 3 g/L KH2PO4, 0.5 g/L NaCl, 1 g/L NH4Cl, 2 mM MgSO4, 0.1 mM CaCl2, adjusted to pH 7.4 with NaOH, and supplemented with 0.2% glucose, 3 mg/L each of D-panthotenic acid and thiamine. M9CA medium contained M9 medium plus 0.2% casamino acids. 5-amino acid (5AA) minimal medium contained M9 medium plus 0.5 mM each of threonine, leucine, histidine, proline and arginine (Faulkner et al, J. Biocl. Chem. 269:23471 (1994)).
(§2) AB 1157 and 31132 were precultured overnight aerobically in M9CA medium at 37° C. and were then diluted to 3×10^7 cells/mL into 5 mL M9CA medium. JI132 was precultured in the presence of 20 μg/mL chloramphenicol and 500 μg/mL kanamycin. When the cells are transferred from M9CA medium to 5AA minimal medium cultures were first centrifuged and washed twice with the 5AA medium before final dilution in it. The centrifugation was conducted at room temperature to avoid temperature shocks. Cultures without and with Mn porphyrins (0.1 to 30 μM) were grown aerobically in 5 mL volume in test tubes in a thermostated orbital shaker (45° angle, 200 rpm) at 37° C.). Rates of growth were followed turbidimetrically at 700 nm to minimize interference from the absorbance of test compounds.

For another series, the system named is wild type AB1157 E. coli. Briefly: Aerobic growth of wild type E. coli (toxicity). The conditions noted are these: separate experiment. It is filed as cell-based. The procedure:
as §1, §2

Read-outs that look alike come from different tables or passages of the source.

For `COCCn1cc[n+](C)c1-c1c2nc(c(-c3n(CCOC)cc[n+]3C)c3ccc([n-]3)c(-c3n(CCOC)cc[n+]3C)c3nc(c(-c4n(CCOC)cc[n+]4C)c4ccc1[n-]4)C=C3)C=C2.[Mn+3]` [MnTM,MOE-2-ImP^5+, Mn(III) tetrakis 5,10,15,20-tetrakis[N-methyl-N′-(2-methoxyethyl)imidazolium-2-yl]porphyrin], the “Metal-centered redox potential E1/2” value in series [1] is listed as “+356 mV vs NHE”. Besides, the “degradation within 2 hours” value in series [2] was 2%. In addition, in [3] (metal-free ligand of the named Mn porphyrin), the “Rf (compound path/solvent path), metal-free porphyrin (in parenthesis)” value is recorded as 0.17. Moreover, in series [3], the “Rf (compound path/solvent path), Mn complex” value came out at 0.15. Besides, the “log kcat for O2^− dismutation” value in [4] is recorded as 7.98.
With `CCC[n+]1ccccc1-c1c2nc(c(-c3cccc[n+]3CCC)c3ccc([n-]3)c(-c3cccc[n+]3CCC)c3nc(c(-c4cccc[n+]4CCC)c4ccc1[n-]4)C=C3)C=C2.[Mn+3]` [MnTnPr-2-PyP^5+], in series [5], the “Rf (compound path/solvent path), metal-free porphyrin (in parenthesis)” value is 0.31 and the “Rf (compound path/solvent path), Mn complex” value is 0.20. For the same compound, the “Metal-centered redox potential E1/2” value in [6] is recorded as “+238 mV vs NHE”. For the same compound, in [7], the “log kcat for O2^− dismutation” value is reported as 7.38. Moreover, in [8], the “aerobic growth of SOD-deficient E. coli” value is given as “most effective” and the “facilitation of aerobic growth of SOD-deficient E. coli, dependence on concentration” value is “concentration-dependent manner”. Besides, in series [8] (1 μM), the “protection of SOD-deficient E. coli” value is given as “low protection”. Besides, in series [8] (30 μM), the “protection of SOD-deficient E. coli” value is on record as “either much higher or near full protection”.
Regarding `CCCCCCCC[n+]1ccccc1-c1c2nc(c(-c3cccc[n+]3CCCCCCCC)c3ccc([nH]3)c(-c3cccc[n+]3CCCCCCCC)c3nc(c(-c4cccc[n+]4CCCCCCCC)c4ccc1[nH]4)C=C3)C=C2` [metal-free n-octyl], the “toxicity of metal-free vs Mn(III) complex” value in the series with wild type AB1157 E. coli is reported as “equally toxic”.
As for `C[n+]1ccccc1-c1c2nc(c(-c3cccc[n+]3C)c3ccc([n-]3)c(-c3cccc[n+]3C)c3nc(c(-c4cccc[n+]4C)c4ccc1[n-]4)C=C3)C=C2.[Mn+3]` [MnTM-2-PyP^5+], in [5], the “Rf (compound path/solvent path), metal-free porphyrin (in parenthesis)” value is 0.13 and the “Rf (compound path/solvent path), Mn complex” value is 0.09. The “Metal-centered redox potential E1/2” value in series [6] is listed as “+220 mV vs NHE”. In series [7], the “log kcat for O2^− dismutation” value was 7.79. Also, in series [8], the “aerobic growth of SOD-deficient E. coli” value is reported as “not far behind” and the “facilitation of aerobic growth of SOD-deficient E. coli, dependence on concentration” value is listed as “concentration-dependent manner”. For the same compound, the “protection of SOD-deficient E. coli” value in series [8] (1 μM) is reported as “low protection”. Also, in [8] (30 μM), the “protection of SOD-deficient E. coli” value was “either much higher or near full protection”.
